Laboratory results from patent US7919458B2, “Method of inhibiting prostate cancer cell proliferation” (Scott, Kieran, Francis, priority 2002, dated 2011).
Non-standard residues stand in square brackets, D forms with d. 2Nal = N[C@@H](Cc1ccc2ccccc2c1)C(=O)O

T1: human sPLA2-IIA (Homo sapiens, UniProt P14555)
T1 sequence (P14555 21-144): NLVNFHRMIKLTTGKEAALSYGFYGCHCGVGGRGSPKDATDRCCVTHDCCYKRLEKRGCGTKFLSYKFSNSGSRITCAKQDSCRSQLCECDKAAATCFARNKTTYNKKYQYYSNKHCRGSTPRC

B1: sPLA2-IIA: human recombinant sPLA2-IIA purified from Chinese hamster ovary cell conditioned media (protein, listed as Homo sapiens)
chain: MKTLLLLAVIMIFGLLQAHGNLVNFHRMIKLTTGKEAALSYGFYGCHCGVGGRGSPKDATDRCCVTHDCCYKRLEKRGCGTKFLSYKFSNSGSRITCAKQDSCRSQLCECDKAAATCFARNKTTYNKKYQYYSNKHCRGSTPRC

Tests used:
DU145 = test: MTS cell growth assay, unstimulated DU145 cells; assay type: cell-based, human; conditions: 1-100 nM, 72 hours, sPLA2-IIA mRNA undetectable
Description: (§1) FIG. 4. Effect of sPLA2-IIA inhibition on unstimulated prostate cancer cells. (A) The endogenous expression of sPLA2-IIA mRNA was evaluated by RT-PCR in three unstimulated prostate cancer cell lines (LNCaP, DU145 and PC-3) grown in RPMI containing 5% FCS. HPRT was used to as a positive control for RNA integrity and loading. (B) Cells were grown in RPMI with 5% FCS were then treated for 72 hours in the presence and absence of the sPLA2-IIA inhibitor c(2Nap)LS(2Nap)R and cell number determined by MTS assay as described in Materials and Methods. Data are mean±SD of quadruplicate determinations expressed as percentages relative to untreated control cells (100%). LNCaP, closed bars, OD495 untreated cells 0.50±0.03; DU145, open bars, OD495 untreated cells 0.73±0.05; PC-3, hatched bars, OD495 untreated cells, 0.66±0.01. *p<0.05 vs untreated control by one-way ANOVA.
Cell Lines and Culture. The LNCaP, DU145 and PC3 cell lines were purchased from American Type Culture Collection (Rockville, Md.). […]
(§2) Cell growth assay. […] After treatment, the number of viable cells was determined using the MTS assay (CellTiter 96® AQueous Assay; Promega, Madison, Wis.). […] The absorbance at 490 nm was measured with an ELISA microplate reader. […]
To test the effect of blocking endogenous sPLA2-IIA on cell growth, we firstly determined the basal mRNA levels of sPLA2-IIA in 3 human prostate cancer cell lines. […]

PC-3 = test: MTS cell growth assay, unstimulated PC-3 cells; assay type: cell-based, human; conditions: 72 hours; for Proliferation of unstimulated PC-3 cells: 1-100 nM, endogenous sPLA2-IIA; for Smallest effective dose, PC-3 proliferation: doses 1-100 nM
Description: as §1
(§3) Cell Lines and Culture. The LNCaP, DU145 and PC3 cell lines were purchased from American Type Culture Collection (Rockville, Md.). All cell cultures were maintained in RPMI 1640 supplemented with 5% FBS for LNCaP and 10% FBS for DU145 and PC3 at 37° C. in a humidified environment of 5% CO2. For experiments with addition of androgens, cells were cultured in RPMI 1640 without phenol red and supplemented with same concentration of charcoal stripped FBS. For experiments described in this article, we used cells between passage 30 and 45 for LNCaP, 65 and 80 for DU145 and 25 and 40 for PC3.
(§4) Cell growth assay. Cells were plated at 1×10^4 per well in 96-well plates with 0.1 ml of FBS-supplemented RPMI. After reaching 70-80% confluence (about 48 hours), the medium was changed to that containing various treatments for 3 days. After treatment, the number of viable cells was determined using the MTS assay (CellTiter 96® AQueous Assay; Promega, Madison, Wis.). In brief, 20 ul of MTS solution was added to each well and cells were incubated for 1 h. The absorbance at 490 nm was measured with an ELISA microplate reader. Each experiment was performed in quadruplicate and repeated at least three times.
(§5) To test the effect of blocking endogenous sPLA2-IIA on cell growth, we firstly determined the basal mRNA levels of sPLA2-IIA in 3 human prostate cancer cell lines. The androgen-independent cell lines PC-3 and DU145 cells were included in the study to also exclude a possible general toxicity of the inhibitors. mRNA encoding sPLA2-IIA was undetectable in DU-145 compared with LNCaP and PC-3 cells (FIG. 4A). We then tested the effect of individual inhibitors cFLSYR (SEQ ID NO: 6) and c(2Nap)LS(2Nap) R on cell growth over a range of doses (1-100 nM). […] The low but effective dosage and its specificity for cell lines containing endogenous sPLA2-IIA only, indicate that non-specific cell toxicity is not likely to explain the inhibitory effect.

LNCaP = test: MTS cell growth assay, unstimulated LNCaP cells; assay type: cell-based, human; conditions: 72 hours; for Proliferation of unstimulated LNCaP cells: 1-100 nM, endogenous sPLA2-IIA; for Smallest effective dose, LNCaP proliferation: doses 1-100 nM
Description: as §1, §3, §4, §5

human sPLA2-IIA = target: T1, human sPLA2-IIA; conditions: previously published work (Tseng et al. 1996; Church et al. 2001); cited from earlier work
LNCaP cells [1] = test: MTS cell growth assay, inhibition of sPLA2-IIA-stimulated LNCaP proliferation; assay type: cell-based, human; conditions: fixed sPLA2-IIA (1 nM), 72 hours, increasing inhibitor concentrations
Description: (§6) FIG. 2. Effect of exogenous addition of sPLA2-IIA on prostate cell growth. LNCaP cells were grown in RPMI with 5% FCS and treated for 72 hours in media containing (A) increasing concentrations of sPLA2-IIA alone (closed bars) or increasing concentrations of the activity-dead sPLA2-IIA mutant H48Q. (B) a fixed concentration of sPLA2-IIA and increasing concentrations of the sPLA2-IIA inhibitor cFLSYR (SEQ ID NO: 6). Cell number relative to untreated control cells was determined by the MTS assay as described in Materials and Methods. Data are Mean±SD of quadruplicate determinations normalised to 100% for untreated cells. OD495 of unstimulated cells was 0.29±0.06 for sPLA2-IIA and 0.24±0.03 for the sPLA2-IIA mutant experiments in panel A and 0.24±0.03 for panel B. *p<0.05 vs untreated control by one-way ANOVA. Data are representative of three separate experiments. (C). […]
FIG. 3. […] Cell number was determined by the MTS assay as described in Materials and Methods. Data are mean±SD of quadruplicate determinations expressed as percentages relative to untreated control cells (100%) (open bar). […]
as §2

LNCaP cells [2] = test: Flow cytometric cell cycle analysis (propidium iodide) of LNCaP cells; assay type: cell-based, human
Description: FIG. 2. Effect of exogenous addition of sPLA2-IIA on prostate cell growth. LNCaP cells were grown in RPMI with 5% FCS and treated for 72 hours in media containing (A) increasing concentrations of sPLA2-IIA alone (closed bars) or increasing concentrations of the activity-dead sPLA2-IIA mutant H48Q. (B) a fixed concentration of sPLA2-IIA and increasing concentrations of the sPLA2-IIA inhibitor cFLSYR (SEQ ID NO: 6). Cell number relative to untreated control cells was determined by the MTS assay as described in Materials and Methods. Data are Mean±SD of quadruplicate determinations normalised to 100% for untreated cells. OD495 of unstimulated cells was 0.29±0.06 for sPLA2-IIA and 0.24±0.03 for the sPLA2-IIA mutant experiments in panel A and 0.24±0.03 for panel B. *p<0.05 vs untreated control by one-way ANOVA. Data are representative of three separate experiments. (C). LNCaP cells were grown as above and stimulated for 72 hours with sPLA2-IIA (1 nM) in the absence (dotted lines) and presence (solid lines) of the sPLA2-IIA inhibitor cFLSYR (SEQ ID NO: 6) (100 nM). Cells (1×10^6) were assayed by flow cytometry following treatment with propidium iodide as described in Materials and Methods. Statistical analysis was performed on 10,000 events per sample. Data are representative of three separate experiments.
Flow Cytometric Analysis. Cells were seeded in 25 ml flasks in conditions as described above. Following treatment, trypsinization and cell counting, LNCaP cells (1×10^6) were suspended in 1 mL PBS and incubated with 0.2 mL 0.4% Triton® X-100 for 5 min at R/T in the presence of 50 μL of propidium iodide solution (50 μg/mL) and 20 μL of ribonuclease (10 mg/mL). DNA content per cell was measured by flow cytometry using an FACScalibur® flow cytometer and CellQuest® software (Becton Dickinson, Franklin Lakes, N.J.). Statistical analysis was performed on 10,000 events per sample.
We next used flow cytometric analysis to determine how sPLA2-IIA affects the distribution of LNCaP cells in different phases of the cell cycle. […]

LNCaP cells [3] = test: MTS cell growth assay, exogenous sPLA2-IIA added to LNCaP cells; assay type: cell-based, human; conditions: 72 hours
Description: as §6, §2
To examine the biological relevance of sPLA2-IIA to prostate cancer cell growth, we treated LNCaP cells with increasing doses of human recombinant sPLA2-IIA and monitored cell growth. […]

Molecule | Effect on unstimulated DU145 cell growth (DU145) | Proliferation of unstimulated PC-3 cells (PC-3) | Smallest effective dose, PC-3 proliferation (PC-3) [nM] | Proliferation of unstimulated LNCaP cells (LNCaP) | Smallest effective dose, LNCaP proliferation (LNCaP) [nM] | Inhibition of human sPLA2-IIA in in vitro activity assays (human sPLA2-IIA) | Effect on sPLA2-IIA-stimulated LNCaP cell number/growth (LNCaP cells [1]) | Proportion of cells in G1 and G2 phase with sPLA2-IIA plus inhibitor (LNCaP cells [2]; sPLA2-IIA 1 nM plus cFLSYR 100 nM, 72 hours) | Lowest dose stimulating LNCaP cell growth (LNCaP cells [3]; MTS assay) [nM] | Effect of exogenously added protein on LNCaP cell growth (MTS) (LNCaP cells [3]; RPMI with 5% FCS, relative to untreated cells) | Proportion of LNCaP cells in G1 phase (LNCaP cells [2]; sPLA2-IIA containing medium (1 nM), 72 hours, untreated 74%) [%] | Proportion of LNCaP cells in G2/M phase (LNCaP cells [2]; sPLA2-IIA containing medium, in comparison to untreated cells)
c(2NapA)LS(2NapA)R: cyclic peptide where F and Y are substituted with 2-naphthylalanine; sPLA2-IIA inhibitor (cyclo([2Nal]LS[2Nal]R); SMILES CC(C)C[C@@H]1NC(=O)[C@H](Cc2ccc3ccccc3c2)NC(=O)[C@H](CCCNC(=N)N)NC(=O)[C@H](Cc2ccc3ccccc3c2)NC(=O)[C@H](CO)NC1=O) | neither of the inhibitors had an effect | significantly decreased | 1 | significantly decreased | 1 | significant improvement in potency over linear peptides | – | – | – | – | – | –
cFLSYR: cyclic peptide FLSYR, sPLA2-IIA inhibitor derived from residues 70-74 of human sPLA2-IIA (cyclic) | neither of the inhibitors had an effect | significantly decreased | 1 | significantly decreased | 1 | significant improvement in potency over linear peptides | completely blocked | returned to basal levels | – | – | – | –
B1 | – | – | – | – | – | – | – | – | 1 | dose-dependently stimulated LNCaP cell growth | 62 | increase
